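At the GI50, growth is halved. TGI denotes the concentration required for complete inhibition of growth.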
Assays:
Assay in all cases: NCI tumour cell line growth inhibition, 384-well format
NCI-H226 lung = tested on: NCI-H226 lung
NCI/ADR-RES ovarian = tested on: NCI/ADR-RES ovarian
NCI-H322M lung = tested on: NCI-H322M lung
OVCAR-8 ovarian = tested on: OVCAR-8 ovarian
EKVX NSCLC = tested on: EKVX NSCLC
HL-60(TB) leukemia = tested on: HL-60(TB) leukemia
NCI-H460 NSCLC = tested on: NCI-H460 NSCLC
MDA-MB-435 melanoma = tested on: MDA-MB-435 melanoma
A549 NSCLC = tested on: A549 NSCLC
SF-268 CNS = tested on: SF-268 CNS
OVCAR-3 ovarian = tested on: OVCAR-3 ovarian
SNB-75 CNS = tested on: SNB-75 CNS
HOP-62 NSCLC = tested on: HOP-62 NSCLC
RPMI-8226 leukemia = tested on: RPMI-8226 leukemia
HS 578T breast = tested on: HS 578T breast
M14 melanoma = tested on: M14 melanoma
UO-31 renal = tested on: UO-31 renal
TK-10 renal = tested on: TK-10 renal
NCI-H23 lung = tested on: NCI-H23 lung
CAKI-1 renal = tested on: CAKI-1 renal
HCC-2998 colon = tested on: HCC-2998 colon
SK-MEL-5 melanoma = tested on: SK-MEL-5 melanoma
MOLT-4 leukemia = tested on: MOLT-4 leukemia
SK-MEL-28 melanoma = tested on: SK-MEL-28 melanoma
DU-145 prostate = tested on: DU-145 prostate
U251 glioblastoma = tested on: U251 glioblastoma
SNB-19 CNS = tested on: SNB-19 CNS

SMILES: C[C@]12CC[C@H](O)CC1=CC[C@@H]1[C@@H]2CC[C@]2(C)C(c3cccnc3)=CC[C@@H]12
- GI50 (NCI-H226 lung): 4.86 µM
- TGI (NCI-H226 lung): > 100 µM
- GI50 (NCI/ADR-RES ovarian): > 100 µM
- TGI (NCI/ADR-RES ovarian): > 100 µM
- GI50 (NCI-H322M lung): > 100 µM
- TGI (NCI-H322M lung): > 100 µM
- GI50 (OVCAR-8 ovarian): > 100 µM
- TGI (OVCAR-8 ovarian): > 100 µM
- GI50 (EKVX NSCLC): 25.9 µM
- TGI (EKVX NSCLC): > 100 µM
- GI50 (HL-60(TB) leukemia): 4.06 µM
- TGI (HL-60(TB) leukemia): 10.1 µM
- GI50 (NCI-H460 NSCLC): > 100 µM
- TGI (NCI-H460 NSCLC): > 100 µM
- GI50 (MDA-MB-435 melanoma): > 100 µM
- TGI (MDA-MB-435 melanoma): > 100 µM
- GI50 (A549 NSCLC): 63.9 µM
- TGI (A549 NSCLC): > 100 µM
- GI50 (SF-268 CNS): > 100 µM
- TGI (SF-268 CNS): > 100 µM
- GI50 (OVCAR-3 ovarian): > 100 µM
- TGI (OVCAR-3 ovarian): > 100 µM
- GI50 (SNB-75 CNS): > 100 µM
- TGI (SNB-75 CNS): > 100 µM
- GI50 (HOP-62 NSCLC): 20 µM
- TGI (HOP-62 NSCLC): > 100 µM
- GI50 (RPMI-8226 leukemia): 2.36 µM
- TGI (RPMI-8226 leukemia): 4.65 µM
- GI50 (HS 578T breast): 9.52 µM
- TGI (HS 578T breast): 49 µM
- GI50 (M14 melanoma): > 100 µM
- TGI (M14 melanoma): > 100 µM
- GI50 (UO-31 renal): > 100 µM
- TGI (UO-31 renal): > 100 µM
- GI50 (TK-10 renal): > 100 µM
- TGI (TK-10 renal): > 100 µM
- GI50 (NCI-H23 lung): > 100 µM
- TGI (NCI-H23 lung): > 100 µM
- GI50 (CAKI-1 renal): 52.8 µM
- TGI (CAKI-1 renal): > 100 µM
- GI50 (HCC-2998 colon): > 100 µM
- TGI (HCC-2998 colon): > 100 µM
- GI50 (SK-MEL-5 melanoma): > 100 µM
- TGI (SK-MEL-5 melanoma): > 100 µM
- GI50 (MOLT-4 leukemia): 2.99 µM
- TGI (MOLT-4 leukemia): 25 µM
- GI50 (SK-MEL-28 melanoma): > 100 µM
- TGI (SK-MEL-28 melanoma): > 100 µM
- GI50 (DU-145 prostate): > 100 µM
- TGI (DU-145 prostate): > 100 µM
- GI50 (U251 glioblastoma): > 100 µM
- TGI (U251 glioblastoma): > 100 µM
- GI50 (SNB-19 CNS): > 100 µM
- TGI (SNB-19 CNS): > 100 µM

Source: PubChem BioAssay (NCI)
